Experimental data as given in ChEMBL document CHEMBL5143723, “Orally Bioavailable Enzymatic Inhibitor of CD38, MK-0159, Protects against Ischemia/Reperfusion Injury in the Murine Heart” (J Med Chem, 2022).

Assays:
[1] = Drug exposure in mouse plasma assessed as AUC of drug at 3 mg/kg, po; format: ADME, organism-based; design: dose 3 mg/kg, route po
[2] = target: T1, ADP-ribosyl cyclase/cyclic ADP-ribose hydrolase 1 (Homo sapiens, UniProt P28907)
T1 sequence (P28907 whole entry): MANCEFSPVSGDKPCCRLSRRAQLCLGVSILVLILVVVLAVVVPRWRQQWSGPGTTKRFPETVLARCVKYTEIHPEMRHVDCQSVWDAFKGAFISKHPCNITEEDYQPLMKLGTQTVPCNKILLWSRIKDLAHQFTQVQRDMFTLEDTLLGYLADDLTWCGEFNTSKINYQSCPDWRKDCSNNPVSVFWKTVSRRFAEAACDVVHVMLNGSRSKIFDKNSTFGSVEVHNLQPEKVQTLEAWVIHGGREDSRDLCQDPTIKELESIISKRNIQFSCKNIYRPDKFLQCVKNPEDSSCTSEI
Description: Inhibition of human his tagged CD38 using N6-etheno-NAD as substrate by fluorescence microplate reader assay

AUC [1] [ng·h/mL]	IC50 [2] [µM]	Structure (SMILES)
6980		COCCO[C@H]1CC[C@H](NC(=O)c2cc(-c3cncs3)cc3[nH]ccc23)CC1
207		COCCO[C@H]1CC[C@H](NC(=O)c2cc(-n3ccnc3)cc3cn[nH]c23)CC1
6820		COCCO[C@H]1CC[C@H](NC(=O)c2cc(-c3cncs3)nc3cc[nH]c23)CC1
	> 100	COCCO[C@H]1CC[C@H](N(C)C(=O)c2cc(-c3cncs3)cc3[nH]ccc23)CC1
	> 100	COCCO[C@H]1CC[C@H](NC(=O)c2cc(-c3cncs3)cn3cnnc23)CC1
	6	COCCO[C@H]1CC[C@H](CNC(=O)c2cc(-c3cncs3)cc3[nH]ccc23)CC1
7380		COCCO[C@H]1CC[C@H](NC(=O)c2cc(-c3cncs3)cc3cc[nH]c23)CC1
	> 100	COCCO[C@H]1CC[C@H](NC(=O)c2cc(-c3cccnn3)cc3cc[nH]c23)CC1
